Experiments:
Albumin [1] = target: T1, Albumin (Homo sapiens, UniProt P02768); assay: Displacement of [C13]-methyl oleic acid from ibuprofen site of human serum albumin by NMR
Albumin [2] = target: T1, Albumin; assay: Displacement of [C13]-methyl oleic acid from warfarin site of human serum albumin by NMR

T1 sequence (P02768 whole entry): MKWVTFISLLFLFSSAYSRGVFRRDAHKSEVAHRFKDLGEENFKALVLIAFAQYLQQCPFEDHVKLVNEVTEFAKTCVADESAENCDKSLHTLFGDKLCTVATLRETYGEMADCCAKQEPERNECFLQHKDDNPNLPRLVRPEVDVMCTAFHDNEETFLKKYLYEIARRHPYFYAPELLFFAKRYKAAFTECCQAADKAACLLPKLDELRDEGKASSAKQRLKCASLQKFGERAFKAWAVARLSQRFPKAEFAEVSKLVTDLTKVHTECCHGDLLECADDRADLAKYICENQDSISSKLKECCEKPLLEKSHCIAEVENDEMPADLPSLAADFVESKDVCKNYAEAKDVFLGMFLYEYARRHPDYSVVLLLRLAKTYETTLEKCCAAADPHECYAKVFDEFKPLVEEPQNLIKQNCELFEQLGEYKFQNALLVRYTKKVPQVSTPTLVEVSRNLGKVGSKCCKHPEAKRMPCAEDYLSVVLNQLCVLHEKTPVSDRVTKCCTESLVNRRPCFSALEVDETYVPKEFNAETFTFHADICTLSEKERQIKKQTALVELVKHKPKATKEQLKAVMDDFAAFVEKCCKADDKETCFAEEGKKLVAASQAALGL

## Cn1c(/C=C/c2ccc(C#N)cc2C(=O)O)cc2ccccc21
Albumin [1]
  Activity: Active
Albumin [2]
  Activity: Active
